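96-well plates; 48 h exposure; 5 concentrations. Endpoints by linear interpolation between flanking doses. Not reached: highest tested concentration assigned. TGI: total growth inhibition.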

Some test systems named below: COLO 205 colon; HL-60(TB) leukemia; HOP-62 NSCLC; HT29 colon; KM12 colon; LOX IMVI melanoma; MDA-MB-231 breast; SF-295 CNS; SNB-75 CNS; SW-620 colon; TK-10 renal; U251 CNS.
Holding throughout (assay): NCI-60 cell line screen, 48 h

Turning to `Cc1nc2c(o1)C(=O)c1ccccc1/C2=N/c1ccccn1`, the TGI with COLO 205 colon was more than 100 µM; in the experiment on HL-60(TB) leukemia it was 44.2 µM; with HOP-62 NSCLC, 37.8 µM; with HT29 colon, 41.3 µM; in the experiment on KM12 colon, 42.2 µM; with LOX IMVI melanoma it was 39.9 µM. Also, the TGI is 69.3 µM in the experiment with MDA-MB-231 breast; more than 100 µM in the experiment with SF-295 CNS; 20.9 µM in the experiment on SNB-75 CNS; 31.6 µM with SW-620 colon; more than 100 µM with TK-10 renal; 30.4 µM in the experiment on U251 CNS.

With `O=C(Oc1ccccc1)c1cc2cc(CCl)ccc2oc1=O`, the TGI in the experiment with COLO 205 colon was 52.9 µM; in the experiment on HL-60(TB) leukemia, more than 100 µM; with HOP-62 NSCLC it was more than 100 µM; in the experiment with HT29 colon, more than 100 µM; in the experiment on KM12 colon, more than 100 µM; in the experiment on LOX IMVI melanoma, more than 100 µM. Also, the TGI with MDA-MB-231 breast was 82 µM; in the experiment with SF-295 CNS it was 98.4 µM; in the experiment on SNB-75 CNS it was 57.3 µM; in the experiment with SW-620 colon it was more than 100 µM; with TK-10 renal, 43.8 µM; in the experiment on U251 CNS, more than 100 µM.

Consider `CCSC1=N/C(=C\c2ccccc2O)C(Nc2ccc(C)cc2)=N1`, for which the TGI with COLO 205 colon, with HL-60(TB) leukemia, in the experiment on HOP-62 NSCLC, in the experiment with HT29 colon, in the experiment with KM12 colon and in the experiment on LOX IMVI melanoma was more than 100 µM each time. For the same compound, the TGI in the experiment on MDA-MB-231 breast, in the experiment with SF-295 CNS, in the experiment on SNB-75 CNS, in the experiment with SW-620 colon, in the experiment on TK-10 renal and in the experiment with U251 CNS was more than 100 µM in each case.

On to `CN1C(c2ccccc2)=CC(=O)C(O)=C(c2ccccc2)S1(=O)=O`, for which the TGI with COLO 205 colon, with HL-60(TB) leukemia, in the experiment on HOP-62 NSCLC, in the experiment on HT29 colon, in the experiment on KM12 colon and with LOX IMVI melanoma was more than 100 µM throughout. For the same compound, the TGI in the experiment on MDA-MB-231 breast, in the experiment with SF-295 CNS, with SNB-75 CNS, in the experiment with SW-620 colon, in the experiment with TK-10 renal and in the experiment with U251 CNS was more than 100 µM each time.

In the case of `O=C1c2ccccc2-c2nc(-c3cccnc3)cc3c2c1nc1ccccc13`, the TGI with COLO 205 colon, in the experiment with HL-60(TB) leukemia, in the experiment with HOP-62 NSCLC, in the experiment with HT29 colon, in the experiment with LOX IMVI melanoma and in the experiment with MDA-MB-231 breast was more than 100 µM throughout. For the same compound, the TGI in the experiment on SF-295 CNS, with SNB-75 CNS, in the experiment on SW-620 colon, in the experiment on TK-10 renal and in the experiment on U251 CNS was more than 100 µM in each case.

Take `CC(C)CCC1(O)O[C@H]2C[C@H]3[C@@H]4CCC5CC(=O)C=C[C@]5(C)[C@H]4CC[C@]3(C)[C@H]2[C@@H]1C` (stereo partly specified): the TGI stood at 27.8 µM in the experiment on COLO 205 colon; 17.7 µM with HL-60(TB) leukemia; 28.4 µM in the experiment on HOP-62 NSCLC; 26.9 µM in the experiment with HT29 colon; 26.5 µM in the experiment on KM12 colon; 26.3 µM with LOX IMVI melanoma. For the same compound, the TGI stood at 28.2 µM in the experiment on MDA-MB-231 breast; 24 µM in the experiment with SF-295 CNS; 28 µM with SNB-75 CNS; 26.4 µM with SW-620 colon; 24.2 µM in the experiment on TK-10 renal; 23.7 µM with U251 CNS.

For the compound `NC1CC(=O)c2csc(Br)c21` (stereo unspecified), the TGI with COLO 205 colon is more than 51.4 µM; with HL-60(TB) leukemia, 61.3 µM; in the experiment on HOP-62 NSCLC it was more than 72 µM; in the experiment on HT29 colon it was 43.8 µM; with KM12 colon, more than 57.9 µM; with LOX IMVI melanoma, 29 µM. The TGI with MDA-MB-231 breast was more than 53.6 µM; in the experiment with SF-295 CNS it was more than 100 µM; in the experiment on SNB-75 CNS, more than 79.5 µM; with SW-620 colon, 24.8 µM; in the experiment on TK-10 renal it was 27.6 µM; with U251 CNS, more than 60 µM.

Take `CC(NS(C)(=O)=O)c1ccccc1` (stereo unspecified): the TGI with COLO 205 colon, in the experiment with HL-60(TB) leukemia, in the experiment on HOP-62 NSCLC, in the experiment with HT29 colon, in the experiment with KM12 colon and in the experiment on LOX IMVI melanoma was more than 100 µM throughout. The TGI with MDA-MB-231 breast, in the experiment on SF-295 CNS, in the experiment with SNB-75 CNS, in the experiment with SW-620 colon, with TK-10 renal and with U251 CNS was more than 100 µM throughout.

As for `O=C(O)CSCC(=O)Nc1ccc2cccc3c2c1CC3`, the TGI in the experiment with COLO 205 colon, with HL-60(TB) leukemia, in the experiment with HOP-62 NSCLC, with HT29 colon, with KM12 colon and with LOX IMVI melanoma was more than 100 µM in each case. For the same compound, the TGI in the experiment with MDA-MB-231 breast, in the experiment on SF-295 CNS, with SNB-75 CNS, in the experiment on SW-620 colon, in the experiment with TK-10 renal and in the experiment on U251 CNS was more than 100 µM throughout.

Consider `CC(=O)Oc1ccc2c(c1)c1c(=O)oc(N(C)C)nc1n2Cc1ccccc1`, for which the TGI in the experiment with COLO 205 colon, in the experiment on HL-60(TB) leukemia, in the experiment on HOP-62 NSCLC, with HT29 colon, with KM12 colon and with LOX IMVI melanoma was more than 100 µM throughout. The TGI in the experiment with MDA-MB-231 breast, in the experiment with SF-295 CNS, in the experiment with SNB-75 CNS, with SW-620 colon, in the experiment on TK-10 renal and with U251 CNS was more than 100 µM throughout.

Regarding `COP(C)(=O)/C(Cc1ccccc1)=N\O` (stereo unspecified), the TGI with COLO 205 colon, in the experiment on HL-60(TB) leukemia, with HOP-62 NSCLC, in the experiment on HT29 colon, in the experiment with LOX IMVI melanoma and in the experiment with MDA-MB-231 breast was more than 100 µM each time. Further, the TGI in the experiment with SF-295 CNS, in the experiment with SNB-75 CNS, in the experiment on SW-620 colon, in the experiment on TK-10 renal and with U251 CNS was more than 100 µM each time.

As to `NNC(=O)c1c(Cl)c(Cl)c(Cl)c(Cl)c1-c1nc2ccccc2[nH]1`, the TGI with COLO 205 colon is 62 µM; in the experiment on HL-60(TB) leukemia it was 38.1 µM; in the experiment on HOP-62 NSCLC, 21.4 µM; in the experiment on HT29 colon, 61.8 µM; in the experiment on KM12 colon it was 29.1 µM; in the experiment on LOX IMVI melanoma, 30.3 µM. For the same compound, the TGI in the experiment on MDA-MB-231 breast was more than 100 µM; in the experiment on SF-295 CNS, 24 µM; with SNB-75 CNS, 38.2 µM; with SW-620 colon, 67.6 µM; in the experiment on TK-10 renal it was 63.2 µM.

Values taken from PubChem BioAssay (NCI).
